Stability data for one compound are collected here from ChEMBL document CHEMBL1154299, “Human liver microsomal metabolism of (+)-discodermolide” (J Nat Prod, 2009).

Format in all cases: ADME
Data set [1] concerns Liver microsomes. The data set can be described thus: Metabolic stability in human liver microsome at 10 uM after 15 mins in the absence of NADPH by LC-MS analysis. The note with it: 0.25 h.
Data set [2] has as its system Liver microsomes. The data set can be described thus: Metabolic stability in heat inactivated human liver microsome at 10 uM after 15 mins in the presence of NADPH by LC-MS analysis. The note with it: 0.25 h. A general note: Liver microsomes are a subcellular fraction often used to study metabolism.
Data set [3] concerns Liver microsomes. The data set is described as follows: Metabolic stability in human liver microsome at 10 uM in the presence of NADPH assessed as level of metabolites after 5 mins by LC-MS analysis.
Data set [4] concerns Liver microsomes. The data set can be described thus: Metabolic stability in human liver microsome at 10 uM in the presence of NADPH assessed as level of metabolites after 1 mins by LC-MS analysis.

Take `C=C/C=C\[C@H](C)[C@H](OC(N)=O)[C@@H](C)[C@H](O)[C@@H](C)C/C(C)=C\[C@H](C)[C@@H](O)[C@@H](C)/C=C\[C@@H](O)C[C@@H]1OC(=O)[C@H](C)[C@@H](O)[C@H]1C` [DISERMOLIDE]: the Stability entry is listed as “Stable” in the data set with Liver microsomes [1], “Stable” in the data set with Liver microsomes [2], “Unstable” in the data set on Liver microsomes [3] and “Unstable” in the data set with Liver microsomes [4].
